This note sets out measurements from PubChem BioAssay AID1963853 (Molecular Pharmacology Branch, DTP, NCI, 2024).

The term viability, T/C denotes the result in the treated group divided by that in the control group, in per cent. What is called IC50 is the point on the concentration scale where inhibition reaches its midpoint.

The test relates to 266295-075-R-J1-PDC spheroid viability. Put plainly: Anticancer human tumor 266295-075-R-J1-PDC patient-derived head and neck squamous carcinoma cell line growth inhibition [POLQ]. Particulars: spheroids with HUVEC and MSC; for viability, T/C: stronger effect = lower value. How it is done: Multicellular complex tumor spheroid response to Polymerase (POL) inhibitors (novobiocin, ART-558, RP6685) in combination with a variety of drugs and investigational agents in selected tumor cell lines
The POL inhibitors (novobiocin, ART-558, and RP6685) were evaluated both individually and in combination with standard of care and investigational anticancer small molecules within a complex spheroid model of solid tumors. . Complex spheroids include a stromal component modeled by human endothelial cells (HUVEC) and fibroblasts modeled by human mesenchymal stem cells (MSCs). The concentration ranges selected for each drug and investigational agent were based upon clinically achievable concentrations if the clinical Cmax of the agent was known.
Compounds. The drugs and investigational agents: novobiocin (NSC847541), ART-558 (NSC835418), RP-6685 (NSC848927), peposertib (NSC802822), ceralasertib (NSC780249), elimusertib (NSC800525), camonsertib (NSC841442), AZD-1390 (NSC803789), olaparib (NSC753686), talazoparib (NSC767125), rucaparib (NSC756644), sotorasib (NSC818433), MRTX-1133 (NSC836407), SN-38 (NSC673596), topotecan (NSC609699), epotoside (NSC141540), doxorubicin (NSC123127), gemcitabine (NSC613327), 5-fluorouracil (NSC19893), paclitaxel (NSC125973), vemurafenib (NSC761431), MSA-2 (NSC828583), SN-011 (NSC837082), adavosertib (NSC754352), prexasertib (NSC758257), carboplatin (NSC241240) and oxaliplatin (NSC266046), were obtained from the National Cancer Institute (NCI) Developmental Therapeutics Program Chemical Repository (21). The FDA-approved anticancer drug set is available from the Developmental Therapeutics Program at https://dtp.cancer.gov/organization/dscb/obtaining/. […] The stock solutions were prepared in dimethyl sulfoxide (DMSO, Sigma-Aldrich, St. Louis, MO, cat. D2650), except for the platinum compounds which were prepared in saline (Quality Biological, Gaithersburg, MD, cat. 114-055-101), at 800-fold the tested concentration and stored at -70 degrees C prior to their use. All drugs and investigational agents were tested over a range starting from a high concentration at or near the clinical Cmax and decreasing in half-log increments. If the clinical Cmax for an agent had not been determined, the highest concentration tested was 10 microM, except for SN-38, which was tested at a high concentration of 1 microM.
Cell Culture. All cells were maintained in an incubator at 37 degrees C and 5% CO2 with 95% humidity. The PDC lines were cultured according to standard operating procedures established by the NCI PDMR (https://pdmr.cancer.gov). Table 3 of the manuscript, lists the cell lines along with the number of the three cell types plated to form the mct-spheroids and media for tumor cell growth. After thawing, all PDC lines, except 997537-175-T-J1-PDC and 415267-285-R-J2-PDC, were cultured in Matrigel-coated flasks prepared with a working solution of 1X Ham's F-12 nutrient mix, without supplementation (Thermo Fisher Scientific, cat. 11765054), 100 U/mL penicillin-streptomycin (Thermo Fisher Scientific, cat. 15140122), and 2.5% Matrigel (Corning Inc., Corning, NY, cat. 354248) for the first three passages. The two PDC lines 997537-175-T-J1-PDC and 415267-285-R-J2-PDC were cultured on uncoated flasks. The 857933-349-R-J2-PDC line was cultured in 6C/Colon 1B media containing advanced DMEM/F-12 (Thermo Fisher Scientific, cat. 12634028), 10 mM HEPES (Thermo Fisher Scientific, cat. 15630080), 1X GlutaMAX supplement (Thermo Fisher Scientific, cat. 35050061), 0.1 mg/mL primocin (InvivoGen, San Diego, CA, cat. ant-pm-2), 10% defined fetal bovine serum, heat inactivated (HyClone Laboratories Inc., Logan, UT, cat. SH30070.03HI), 50% L-WRN conditioned media (ATCC, cat. CRL-3276), 1.25 mM N-Acetyl-L-cysteine (Sigma-Aldrich, cat. A9165), 10 mM nicotinamide (Sigma-Aldrich, cat. N0636), 1X B-27 supplement (Thermo Fisher Scientific, cat. 17504044), 1X N-2 supplement (Thermo Fisher Scientific, cat. […]

[1] abbreviates: compound alone, run of 11/06/2023.

Several values for one entry are separate records, joined by “and”; a condition that tells them apart may be missing. Equal entries are not always repeated.
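Also: spheroids exposed to compounds for seven days before readout.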

Regarding `C#Cc1c(F)ccc2cc(O)cc(-c3ncc4c(N5CC6CCC(C5)N6)nc(OCC56CCCN5CC(F)C6)nc4c3F)c12` (stereo not drawn), the viability, T/C runs as follows: (compound 0.0316 µM) 88.8% and 94.8% and 100%; (compound 0.1 µM) 93.5% and 94.2% and 79.7%; (compound 0.316 µM) 81.2% and 69.6% and 68.8%; (compound 1 µM) 76.1% and 83.5% and 63.2%; (compound 3.16 µM) 66% and 76.4% and 54.8%; (compound 10 µM) 61.1% and 56.7% and 58%. In addition, the IC50 (curve of compound) was over 10 µM.
For the compound `CC1COCCN1c1cc(C2(O)CC3CCC(C2)O3)c2cnn(-c3ccn[nH]3)c2n1` (stereo not drawn), the viability, T/C is 74.1% and 100% and 73.6% (compound 0.0316 µM); 84.5% and 71.6% and 81% (compound 0.1 µM); 62.8% and 65.5% and 67.8% (compound 0.316 µM); 43.3% and 50.5% and 46.8% (compound 1 µM); 40.4% and 43.8% and 42.7% (compound 3.16 µM); 27.9% and 29.2% and 30.2% (compound 10 µM). Further, for the setting “curve of compound”, the IC50 was 0.708 µM and 0.992 µM and 0.944 µM.
Take `CCc1cc2c(N3CCc4c(cc(Cn5ccnc5)cc4-c4cn(C)nc4C(F)(F)F)C3=O)cc(C)nc2c(OC)n1`: the viability, T/C is 98.5% and 103% and 90.3% (compound 0.0316 µM); 95.8% and 103% and 98.5% (compound 0.1 µM); 91.9% and 89.5% and 109% (compound 0.316 µM); 120% and 97% and 110% (compound 1 µM); 123% and 113% and 127% (compound 3.16 µM); 128% (2×) and 130% (compound 10 µM). The IC50 (curve of compound) is over 10 µM.
Consider `CCc1cc2c(N3CCc4c(cc(Cn5ccnc5)cc4-c4cn(C)nc4C(F)(F)F)C3=O)ccnc2c(OC)n1`, for which the viability, T/C reads like this: (compound 0.0316 µM) 90% and 97.3% and 94%; (compound 0.1 µM) 86.8% and 96.2% and 103%; (compound 0.316 µM) 93.4% and 103% and 122%; (compound 1 µM) 106% (2×) and 117%; (compound 3.16 µM) 125% and 145% and 137%; (compound 10 µM) 126% and 117% and 140%. For the setting “curve of compound”, the IC50 was over 10 µM.
For `COc1cc2cc(C(=O)CCC(=O)O)sc2cc1OC`, the viability, T/C reads like this: (compound 0.0316 µM) 96.8% and 81.4% and 99%; (compound 0.1 µM) 105% and 89.9% and 92.6%; (compound 0.316 µM) 108% and 91.4% and 97.7%; (compound 1 µM) 101% (2×) and 99.7%; (compound 3.16 µM) 87.9% and 109% and 115%; (compound 10 µM) 93.1% and 105% and 85.8%. For the setting “curve of compound”, the IC50 is over 10 µM.
In the case of `Cc1cccc(N(C)C(=O)C2C(O)CCN2c2nc(C)cc(C(F)(F)F)c2C#N)c1` (stereo not drawn), the IC50 by setting is: (compound alone, run of 10/31/2023) over 10 µM; under setting [1], over 10 µM.
On to `Nc1ccc(C#CCN(C(=O)Cc2ncc(C(F)(F)F)cc2C(F)(F)F)c2ccc(F)cc2)nn1`, for which the viability, T/C is 102% [middle of 13 runs] (compound 0.316 µM), 95.5% [middle of 13 runs] (compound 3.16 µM) and 96.3% [middle of 13 runs] (compound 10 µM). For the same compound, the IC50 under setting [1] was over 10 µM.
As for `O=C(Nc1ccc(O)c(NS(=O)(=O)c2ccc(F)cc2)c1)c1ccc(-c2ccccc2)cc1`, the viability, T/C was 119% and 92.8% and 88.2% (compound 0.0316 µM); 112% and 97.5% and 96.2% (compound 0.1 µM); 102% and 96.6% and 99.1% (compound 0.316 µM); 123% and 103% and 118% (compound 1 µM); 153% and 112% and 122% (compound 3.16 µM); 114% and 96.1% and 113% (compound 10 µM). For the same compound, the IC50 (curve of compound) is over 10 µM.
